Laboratory results published in patent US20250002492A1, “COMPOSITIONS OF FOLATE ABSORPTION INHIBITORS AND METHODS THEREOF” (THE TEXAS A&M UNIVERSITY SYSTEM, priority 2023, published 2025).

Key:
[1] = system: Caco-2 cells; test: Toxicity in Caco-2 cells; assay type: cell-based; settings: tested at 2-400 μM
[2] = system: C. elegans strain N2; test: Lifespan assay in worms; assay type: in vivo
Description: The ability of pharmacological or other interventions to extend the lifespan of different organisms is often conserved. For the instant example, the disclosed compounds can be tested for their ability to extend the lifespan of the worm model system Caenorhabditis elegans (N2 strain) [see, e.g., PMID: 19488025]. The organisms can be first exposed to the compounds as adults, 2-3 days after the egg stage until their death, on solid media containing the compounds at the desired concentration. The temperature can be kept constant at 20° C. throughout the assays. The bacteria used as food for the worms (Escherichia coli strain OP-50) can be dead (e.g., killed by lethal doses of ultraviolet radiation) to ensure that any effects on lifespan are not indirect, mediated through bacterial metabolism.
The assays were performed at 20° C. using C. elegans strain N2 and a bacterial strain (OP50) commonly used as food for the worms. Briefly, the assays were performed on solid agar nematode growth media (NGM) plates prepared fresh before each experiment. The bacterial lawn was exposed twice to a UV dose of 120 mJ/cm^2 using a UVC-515 Ultraviolet Multilinker (Ultra-Lum, Inc.). Streaking these UV-exposed bacteria to fresh LB agar plates (1% w/v tryptone, 0.5% w/v yeast extract, 1% w/v sodium chloride) produced no visible colonies. Methotrexate, or the ATIC inhibitor, was first dissolved in DMSO and then added to the media used to prepare the plates after autoclaving (the media were kept in a 50° C. water bath until the plates were poured). Mock-treated control plates contained only DMSO. At the start of each experiment, a sufficient number of eggs were collected from plates without any drugs and then placed on plates containing the indicated doses of each compound tested. After hatching and progression to the adult stage, animals were transferred to new plates (marked as the start of the lifespan assay) containing the drug tested and fluorodeoxyuridine (FUDR; dissolved in water), added at 50 μM to block hatching of new animals. The plates were scored at least every other day until all the worms died. If an animal responded to gentle touch, it was scored as alive, otherwise a death was recorded, and the animal was removed from the plate. Worms were transferred to fresh plates as needed (e.g., if there was evidence of microbial contamination, dryness/cracks on the agar surface, consumption of the bacterial lawn, or hatching of new animals that escaped the FUDR block). The reported lifespans were compiled from several independent experiments done over several months (9-10 months for the methotrexate experiments and 4-5 months for the ATIC inhibitor), each scored by multiple individuals (4-5 persons per experiment). No experiments were excluded from the analysis.

With CC(=O)N1CCC(C(=O)N2CCN3C(=O)c4cc(-c5ccccc5)ccc4NC(=O)C3C2)CC1 (stereo not shown) [MPOL_B_1, 2-(1-acetylpiperidine-4-carbonyl)-8-phenyl-1,3,4,12a-tetrahydrobenzo[e]pyrazino[1,2-a][1,4]diazepine-6,12(2H,11H)-dione] the “toxicity” value [1] was “not toxic”, the “lifespan effect relative to the effect of methotrexate” value ([2]; same worm assay) was 2-3 times and the “extension of maximal lifespan” value ([2]; worms, 50 and 100 μM) was about 30%. For the same compound, the “extension of mean lifespan” value ([2]; worms, 50 and 100 μM) was about 30%.
